Test results: patent US8338465B2, “Cyclic carboxylic acid rhodanine derivatives for the treatment and prevention of tuberculosis” (priority 2006, dated 2012)

What follows are compounds tested against T1, dihydrolipoamide acyltransferase (DlaT) (Mycobacterium tuberculosis, UniProt P9WIS7) (assay: DlaT inhibition (Dlat IC50); DTNB peroxidase assay with Lpd, DlaT and AhpD). Conditions: Table 1, Compounds A1 to A294; read-out: Dlat IC50 category.
T1 sequence (P9WIS7 1-553): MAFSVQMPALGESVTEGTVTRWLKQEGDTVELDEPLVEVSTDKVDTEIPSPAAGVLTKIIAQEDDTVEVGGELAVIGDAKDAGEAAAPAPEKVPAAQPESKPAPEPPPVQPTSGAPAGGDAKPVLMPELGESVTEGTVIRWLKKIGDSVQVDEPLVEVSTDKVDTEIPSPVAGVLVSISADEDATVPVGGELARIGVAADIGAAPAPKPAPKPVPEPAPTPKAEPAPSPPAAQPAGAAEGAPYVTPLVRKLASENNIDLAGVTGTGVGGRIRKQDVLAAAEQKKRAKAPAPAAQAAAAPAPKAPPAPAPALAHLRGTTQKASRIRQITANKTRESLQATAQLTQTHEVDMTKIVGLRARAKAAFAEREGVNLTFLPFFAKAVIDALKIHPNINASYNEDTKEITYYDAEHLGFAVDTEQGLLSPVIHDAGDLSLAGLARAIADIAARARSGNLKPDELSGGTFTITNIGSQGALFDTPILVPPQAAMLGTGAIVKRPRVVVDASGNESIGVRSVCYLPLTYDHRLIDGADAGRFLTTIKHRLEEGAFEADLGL
Format: biochemical

`CC(C)Cc1ccc(-c2ccc(C=C3SC(=S)N(c4ccc(O)c(C(=O)O)c4)C3=O)o2)cc1` [Compound A65] and `CC(C)Cc1ccc(-c2ccc(C=C3SC(=S)N(c4cc(C(=O)O)ccc4Cl)C3=O)o2)cc1` [Compound A92] cannot be ordered by IC50: < 10 µM for the first, < 10 µM for the second.

`O=C(O)c1cc(N2C(=O)C(=Cc3ccc(-c4ccccc4Cl)o3)SC2=S)ccc1Cl` [Compound A66] and `O=C(O)c1ccc(Cl)c(N2C(=O)C(=Cc3ccc(-c4ccccc4Cl)o3)SC2=S)c1` [Compound A71] cannot be ordered by IC50: < 10 µM for the first, < 10 µM for the second.

`O=C(O)c1cc(N2C(=O)C(=Cc3ccc(-c4cccc(C(F)(F)F)c4)o3)SC2=S)ccc1Cl` [Compound A67] and `O=C(O)c1ccc(Cl)c(N2C(=O)C(=Cc3ccc(-c4cccc(C(F)(F)F)c4)o3)SC2=S)c1` [Compound A73] cannot be ordered by IC50: < 10 µM for the first, < 10 µM for the second.

`O=C(O)c1cc(N2C(=O)C(=Cc3ccc(-c4ccc(Cl)cc4)o3)SC2=S)ccc1Cl` [Compound A68] and `O=C(O)c1ccc(Cl)c(N2C(=O)C(=Cc3ccc(-c4ccc(Cl)cc4)o3)SC2=S)c1` [Compound A72] cannot be ordered by IC50: < 10 µM for the first, < 10 µM for the second.

`O=C(O)c1cc(N2C(=O)C(=Cc3ccc(-c4ccccc4OC(F)(F)F)o3)SC2=S)ccc1Cl` [Compound A69] and `O=C(O)c1cccc(N2C(=O)C(=Cc3ccc(-c4ccccc4OC(F)(F)F)o3)SC2=S)c1` [Compound A70] cannot be ordered by IC50: < 10 µM for the first, < 10 µM for the second.

`COc1ccc(C(=O)O)cc1N1C(=O)C(=Cc2ccc(-c3ccccc3Cl)o2)SC1=S` [Compound A74] and `Cc1ccc(C(=O)O)cc1N1C(=O)C(=Cc2ccc(-c3ccccc3Cl)o2)SC1=S` [Compound A78] cannot be ordered by IC50: < 10 µM for the first, < 10 µM for the second.

First: NC(=O)c1cccc(N2C(=O)C(=Cc3ccc(-c4ccccc4Cl)o3)SC2=S)c1 [Compound A75]
Second: O=C(O)CCc1cccc(N2C(=O)C(=Cc3ccc(-c4ccccc4Cl)o3)SC2=S)c1 [Compound A118]
The IC50 of the first is higher: 11 to 40 µM for the first, < 10 µM for the second.

First: NC(=O)c1cccc(N2C(=O)C(=Cc3ccc(-c4cccc(C(F)(F)F)c4)o3)SC2=S)c1 [Compound A76]
Second: O=C(O)c1ccc(F)c(N2C(=O)C(=Cc3ccc(-c4cccc(C(F)(F)F)c4)o3)SC2=S)c1 [Compound A103]
The IC50 of the first is higher: 11 to 40 µM for the first, < 10 µM for the second. The second is the more potent here.

`NC(=O)c1cccc(N2C(=O)C(=Cc3ccc(-c4ccc(Cl)cc4)o3)SC2=S)c1` [Compound A77] and `CN(C)c1ccc(-c2ccc(C=C3SC(=S)N(c4cccc(C(=O)O)c4)C3=O)o2)cc1` [Compound A116] fall in the same range of IC50: 11 to 40 µM for the first, 11 to 40 µM for the second.

`Cc1c(C(=O)O)cccc1N1C(=O)C(=Cc2ccc(-c3ccccc3Cl)o2)SC1=S` [Compound A79] and `Cc1c(C(=O)O)cccc1N1C(=O)C(=Cc2ccc(-c3c(Cl)cccc3Cl)o2)SC1=S` [Compound A112] cannot be ordered by IC50: < 10 µM for the first, < 10 µM for the second.

`Cc1ccc(C(=O)O)cc1N1C(=O)C(=Cc2ccc(-c3ccc(C(C)(C)C)cc3)o2)SC1=S` [Compound A80] and `CC(C)(C)c1ccc(-c2ccc(C=C3SC(=S)N(c4cc(C(=O)O)ccc4F)C3=O)o2)cc1` [Compound A100] cannot be ordered by IC50: < 10 µM for the first, < 10 µM for the second.

`Cc1c(C(=O)O)cccc1N1C(=O)C(=Cc2ccc(-c3ccc(C(C)(C)C)cc3)o2)SC1=S` [Compound A81] and `Cc1c(C(=O)O)cccc1N1C(=O)C(=Cc2ccc(-c3ccc(C(C)(C)c4ccccc4)cc3)o2)SC1=S` [Compound A98] cannot be ordered by IC50: < 10 µM for the first, < 10 µM for the second.

`Cc1ccc(C(=O)O)cc1N1C(=O)C(=Cc2ccc(-c3ccc(C4CCCCC4)cc3)o2)SC1=S` [Compound A82] and `O=C(O)c1ccc(F)c(N2C(=O)C(=Cc3ccc(-c4ccc(C5CCCCC5)cc4)o3)SC2=S)c1` [Compound A101] cannot be ordered by IC50: < 10 µM for the first, < 10 µM for the second.

`Cc1c(C(=O)O)cccc1N1C(=O)C(=Cc2ccc(-c3ccc(C4CCCCC4)cc3)o2)SC1=S` [Compound A83] and `O=C(O)c1cccc(N2C(=O)C(=Cc3ccc(-c4ccc(C5CCCC5)cc4)o3)SC2=S)c1` [Compound A94] cannot be ordered by IC50: < 10 µM for the first, < 10 µM for the second.

`O=C(O)c1cccc(N2C(=O)C(=Cc3ccc(-c4ccc(Cc5ccc(Cl)cc5)cc4)o3)SC2=S)c1` [Compound A84] and `CC(C)(c1ccccc1)c1ccc(-c2ccc(C=C3SC(=S)N(c4cccc(C(=O)O)c4)C3=O)o2)cc1` [Compound A95] cannot be ordered by IC50: < 10 µM for the first, < 10 µM for the second.

`COc1ccc(C(=O)O)cc1N1C(=O)C(=Cc2ccc(-c3cccc(C(F)(F)F)c3)o2)SC1=S` [Compound A86] and `COc1ccc(C(=O)O)cc1N1C(=O)C(=Cc2ccc(-c3cccc(C(C)C)c3)o2)SC1=S` [Compound A93] cannot be ordered by IC50: < 10 µM for the first, < 10 µM for the second.

`COc1ccc(C(=O)O)cc1N1C(=O)C(=Cc2ccc(-c3ccc(Cl)cc3)o2)SC1=S` [Compound A87] and `O=C(O)c1ccc(F)c(N2C(=O)C(=Cc3ccc(-c4ccc(Cl)cc4)o3)SC2=S)c1` [Compound A104] cannot be ordered by IC50: < 10 µM for the first, < 10 µM for the second.

`O=C(O)c1cc(N2C(=O)C(=Cc3ccc(-c4ccccc4Cl)o3)SC2=S)cc([N+](=O)[O-])c1` [Compound A88] and `O=C(O)c1cc(N2C(=O)C(=Cc3ccc(-c4ccc(Cl)cc4)o3)SC2=S)cc([N+](=O)[O-])c1` [Compound A90] cannot be ordered by IC50: < 10 µM for the first, < 10 µM for the second.

`O=C(O)c1cc(N2C(=O)C(=Cc3ccc(-c4cccc(C(F)(F)F)c4)o3)SC2=S)cc([N+](=O)[O-])c1` [Compound A89] and `O=C(O)c1cccc(N2C(=O)C(=Cc3ccc(-c4ccc(C(=O)O)c(O)c4)o3)SC2=S)c1` [Compound A115] fall in the same range of IC50: 11 to 40 µM for the first, 11 to 40 µM for the second.

Compared with `COc1ccc(C(=O)O)cc1N1C(=O)C(=Cc2ccc(-c3ccc(CC(C)C)cc3)o2)SC1=S` [Compound A91], `COc1ccc(C(=O)O)cc1N1C(=O)C(=Cc2ccc(-c3ccc(C(C)(C)c4ccccc4)cc3)o2)SC1=S` [Compound A97] is higher in IC50: < 10 µM for the first, 11 to 40 µM for the second.

`CC(C)(c1ccccc1)c1ccc(-c2ccc(C=C3SC(=S)N(c4cc(C(=O)O)ccc4Cl)C3=O)o2)cc1` [Compound A96] and `Cc1ccc(C(=O)O)cc1N1C(=O)C(=Cc2ccc(-c3ccc(C(C)(C)c4ccccc4)cc3)o2)SC1=S` [Compound A102] cannot be ordered by IC50: < 10 µM for the first, < 10 µM for the second.

`O=C(O)c1ccc(F)c(N2C(=O)C(=Cc3ccc(-c4ccccc4Cl)o3)SC2=S)c1` [Compound A99] and `O=C(O)c1ccc(F)c(N2C(=O)C(=Cc3ccc(-c4c(Cl)cccc4Cl)o3)SC2=S)c1` [Compound A106] cannot be ordered by IC50: < 10 µM for the first, < 10 µM for the second.

`O=C(O)c1ccc(F)c(N2C(=O)C(=Cc3ccc(-c4ccc(Cl)c(Cl)c4)o3)SC2=S)c1` [Compound A105] and `O=C(O)c1ccc(Cl)c(N2C(=O)C(=Cc3ccc(-c4ccc(Cl)c(Cl)c4)o3)SC2=S)c1` [Compound A107] cannot be ordered by IC50: < 10 µM for the first, < 10 µM for the second.

`O=C(O)c1cc(N2C(=O)C(=Cc3ccc(-c4ccc(Cl)c(Cl)c4)o3)SC2=S)ccc1Cl` [Compound A108] and `O=C(O)c1cc(N2C(=O)C(=Cc3ccc(-c4c(Cl)cccc4Cl)o3)SC2=S)ccc1Cl` [Compound A109] cannot be ordered by IC50: < 10 µM for the first, < 10 µM for the second.

`O=C(O)c1ccc(Cl)c(N2C(=O)C(=Cc3ccc(-c4c(Cl)cccc4Cl)o3)SC2=S)c1` [Compound A110] and `Cc1ccc(C(=O)O)cc1N1C(=O)C(=Cc2ccc(-c3c(Cl)cccc3Cl)o2)SC1=S` [Compound A114] cannot be ordered by IC50: < 10 µM for the first, < 10 µM for the second.

`Cc1c(C(=O)O)cccc1N1C(=O)C(=Cc2ccc(-c3ccc(Cl)c(Cl)c3)o2)SC1=S` [Compound A111] and `Cc1ccc(C(=O)O)cc1N1C(=O)C(=Cc2ccc(-c3ccc(Cl)c(Cl)c3)o2)SC1=S` [Compound A113] cannot be ordered by IC50: < 10 µM for the first, < 10 µM for the second.

With `O=C(O)c1cccc(N2C(=O)C(=Cc3ccc(-c4cccc(Cl)c4Cl)o3)SC2=S)c1` [Compound A117] the IC50 was < 10 µM.
